Laboratory results: patent US6737383B1, “Herbicidal oxadiazolidines” (priority 1999, dated 2004)

Key:
giant foxtail = assay: Test B pre/postemergence giant foxtail; assay type: in vivo, Setaria faberii
Method in brief: (§1)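 Test chemicals in a non-phytotoxic solvent mixture with surfactant were sprayed preemergence onto planted seeds and postemergence onto plants 2 to 18 cm tall (1- to 4-leaf stage). After twelve to sixteen days in a greenhouse, injury was visually rated against untreated controls from 0 (no effect) to 10 (complete control).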

soybean = assay: Test B pre/postemergence soybean; assay type: in vivo, Glycine max
Method in brief: as §1

rice = assay: Test B flood test rice; assay type: in vivo, Oryza sativa
Method in brief: (§2)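 Read-out is a visual response score from 0 (no effect) to 10 (complete control), assigned by comparison with untreated controls. Treatment was applied at the 2-leaf stage, and plants stayed in the greenhouse for twelve to sixteen days before scoring.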

bamyardgrass = assay: Test B flood test barnyardgrass; assay type: in vivo, Echinochloa crus-galli
Method in brief: as §2

large crabgrass = assay: Test D large crabgrass; assay type: in vivo, Digitaria sanguinalis; settings: Preemergence, 0 to 100 scale
Method in brief: (§3)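 Each weed species is planted in its own pot or compartment; preemergence doses go on the sandy loam surface within a day. The formulation is a surfactant-containing, non-phytotoxic solvent blend. Ratings come from visual comparison with untreated controls 14 to 21 days later, where 100 means complete control.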

purple nutsedge = assay: Test D purple nutsedge; assay type: in vivo, Cyperus rotundus; settings: Preemergence, 0 to 100 scale
Method in brief: as §3

winter wheat [1] = assay: Test E winter wheat; assay type: in vivo, Triticum aestivum; settings: Postemergence; for Plant response rating, Wheat (winter): 0 to 100 scale
Method in brief: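 Compound formulated with surfactant in a non-phytotoxic solvent (postemergence: young 1- to 4-leaf plants); held in greenhouse approx. 21–28 days; visual assessment against untreated plants.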

blackgrass = assay: Test E blackgrass; assay type: in vivo, Alopecurus myosuroides; settings: Preemergence
green foxtail = assay: Test E green foxtail; assay type: in vivo, Setaria viridis; settings: Preemergence
Italian ryegrass = assay: Test E Italian ryegrass; assay type: in vivo, Lolium multiflorum; settings: Preemergence
winter wheat [2] = assay: Test E winter wheat; assay type: in vivo, Triticum aestivum; settings: Preemergence
wild oat = assay: Test E wild oat; assay type: in vivo, Avena fatua; settings: Preemergence
winter barley = assay: Test E winter barley; assay type: in vivo, Hordeum vulgare; settings: Preemergence
[3] = Postemergence, Rate 125 g/ha, scale of 0 to 10 where 0 is no effect and 10 is complete control
[4] = Preemergence, Rate 31 g/ha, visual rating, scale 0 to 10 (0 no effect, 10 complete control)
[5] = Preemergence, Rate 62 g/ha, scale 0 to 10 (0 no effect, 10 complete control)
[6] = Preemergence, Rate 125 g/ha, 0 is no effect, 10 is complete control
[7] = Preemergence, Rate 250 g/ha, scale 0 to 10, 0 is no effect, 10 is complete control
[8] = Preemergence, Rate 500 g/ha, scale 0 to 10 (0 no effect, 10 complete control)
[9] = Rate 62 g/ha, Postemergence, scale of 0 to 10 where 0 is no effect and 10 is complete control
[10] = Rate 250 g/ha, Postemergence, scale 0 to 10, 0 is no effect, 10 is complete control
[11] = Rate 500 g/ha, Postemergence, scale 0 to 10
[12] = Postemergence (flood test species), Rate 125 g/ha, scale of 0 to 10 where 0 is no effect and 10 is complete control
[13] = Rate 31 g/ha, Postemergence section (flood test species), scale 0 to 10
[14] = Rate 62 g/ha, Postemergence section, flood test species, scale of 0 to 10 where 0 is no effect and 10 is complete control
[15] = Rate 62 g/ha, headed Pre-emergence (flood test species), scale 0 to 10 (0 no effect, 10 complete control)
[16] = Rate 125 g/ha, Pre-emergence, flood test species, scale 0 to 10 where 0 is no effect and 10 is complete control
[17] = Rate 250 g/ha, Postemergence (flood test), scale 0 to 10, 0 is no effect, 10 is complete control
[18] = Rate 250 g/ha, Pre-emergence, flood-test species, scale 0 to 10, 0 is no effect, 10 is complete control
[19] = Rate 500 g/ha, headed Pre-emergence (flood test species), scale 0 to 10 (0 no effect, 10 complete control)
[20] = Rate 16 g/ha, 0 no injury, 100 complete control
[21] = Rate 32 g/ha, 0 no injury, 100 complete control
[22] = Rate 64 g/ha, 0 no injury, 100 complete control
[23] = Rate 125 g/ha, 0 no injury, 100 complete control
[24] = Rate 31 g/ha, 0 to 100 scale, 0 no effect, 100 complete control
[25] = Rate 62 g/ha, 0 to 100 scale, 0 no effect, 100 complete control
[26] = Rate 125 g/ha, 0 to 100 scale (0 no effect, 100 complete control)
[27] = Rate 500 g/ha, 0 to 100 scale where 0 is no effect and 100 is complete control

C=CCn1c(=O)on(C(=O)N(c2ccc(F)cc2)C(C)C)c1=O [Compound 146]
Giant foxtail plant response rating (giant foxtail; [3]): 9
Giant foxtail plant response rating (giant foxtail; [4]): 9
Giant foxtail plant response rating (giant foxtail; [5]): 10
Giant foxtail plant response rating (0 to 10 scale) (giant foxtail; [6]): 10
Giant foxtail plant response rating (giant foxtail; [7]): 10
Giant foxtail plant response rating (giant foxtail; [8]): 10
Giant foxtail plant response rating (giant foxtail; Rate 31 g/ha, Postemergence, scale 0 to 10): 3
Giant foxtail plant response rating (giant foxtail; [9]): 8
Plant response rating, Giant foxtail (giant foxtail; [10]): 9
Giant foxtail plant response rating (giant foxtail; [11]): 9
Soybean plant response rating (soybean; [3]): 6
Soybean plant response rating (soybean; [4]): 0
Soybean plant response rating (soybean; [5]): 0
Soybean plant response rating (0 to 10 scale) (soybean; [6]): 0
Soybean plant response rating (soybean; [7]): 2
Soybean plant response rating (soybean; [8]): 4
Soybean plant response rating (soybean; [9]): 3
Plant response rating, Soybean (soybean; [10]): 6
Soybean plant response rating (soybean; [11]): 8
Rice plant response rating (rice; [12]): 0
Rice plant response rating (rice; [13]): 0
Rice plant response rating (rice; [14]): 0
Rice plant response rating (rice; [15]): 0
Rice plant response rating (rice; [16]): 0
Plant response rating, Rice (rice; [17]): 2
Rice plant response rating (rice; [18]): 0
Plant response rating, Rice (rice; [19]): 0
Rice plant response rating (rice; Rate 500 g/ha, listed under Postemergence (flood test species), scale 0 to 10): 7
Barnyardgrass plant response rating (bamyardgrass; [12]): 0
Barnyardgrass plant response rating (bamyardgrass; [13]): 0
Barnyardgrass plant response rating (bamyardgrass; [14]): 0
Barnyardgrass plant response rating (bamyardgrass; [15]): 0
Barnyardgrass plant response rating (bamyardgrass; [16]): 0
Plant response rating, Barnyardgrass (bamyardgrass; [17]): 1
Barnyardgrass plant response rating (bamyardgrass; [18]): 1
Plant response rating, Barnyardgrass (bamyardgrass; [19]): 5
Barnyardgrass plant response rating (bamyardgrass; Rate 500 g/ha, listed under Postemergence (flood test species), scale 0 to 10, 0 no effect, 10 complete control): 9
Plant response rating Large crabgrass (large crabgrass; [20]): 90
Plant response rating Large crabgrass (large crabgrass; [21]): 100
Plant response rating Large crabgrass (large crabgrass; [22]): 100
Plant response rating Large crabgrass (large crabgrass; [23]): 100
Plant response rating Large crabgrass (large crabgrass; Rate 250 g/ha): 100
Plant response rating Large crabgrass (large crabgrass; Rate 500 g/ha): 100
Plant response rating, Purple nutsedge (purple nutsedge; [20]): 40
Plant response rating, Purple nutsedge (purple nutsedge; [21]): 40
Purple nutsedge plant response rating (purple nutsedge; [22]): 65
Purple nutsedge plant response rating (purple nutsedge; [23]): 70
Plant response rating, Purple nutsedge (purple nutsedge; Rate 250 g/ha): 75
Plant response rating, Purple nutsedge (purple nutsedge; Rate 500 g/ha): 100
Plant response rating, Wheat (winter) (winter wheat [1]; Rate 31 g/ha, 0 no effect, 100 complete control): 30
Plant response rating, Wheat (winter) (winter wheat [1]; Rate 62 g/ha): 20
Plant response rating, Wheat (winter) (winter wheat [1]; Rate 125 g/ha): 40
Plant response rating, Wheat (winter) (winter wheat [1]; Rate 500 g/ha, 0 no effect, 100 complete control): 20
Wheat (winter) plant response rating (winter wheat [1]; Rate 250 g/ha, 0 to 100 scale where 0 is no effect and 100 is complete control): 60
Plant response rating, Blackgrass (blackgrass; [24]): 20
Plant response rating, Blackgrass (blackgrass; [25]): 70
Plant response rating, Blackgrass (blackgrass; [26]): 85
Blackgrass plant response rating (0 to 100 scale) (blackgrass; Rate 250 g/ha): 90
Plant response rating, Blackgrass (blackgrass; [27]): 70
Plant response rating, Green foxtail (green foxtail; [24]): 50
Plant response rating, Green foxtail (green foxtail; [25]): 55
Plant response rating, Green foxtail (green foxtail; [26]): 50
Green foxtail plant response rating (0 to 100 scale) (green foxtail; Rate 250 g/ha): 65
Plant response rating, Green foxtail (green foxtail; [27]): 100
Plant response rating, I. Ryegrass (Italian ryegrass; [24]): 50
Plant response rating, I. Ryegrass (Italian ryegrass; [25]): 40
Plant response rating, I. Ryegrass (Italian ryegrass; [26]): 50
I. Ryegrass plant response rating (0 to 100 scale) (Italian ryegrass; Rate 250 g/ha): 60
Plant response rating, I. Ryegrass (Italian ryegrass; [27]): 90
Plant response rating, Wheat (winter) (winter wheat [2]; [24]): 20
Plant response rating, Wheat (winter) (winter wheat [2]; [25]): 0
Plant response rating, Wheat (winter) (winter wheat [2]; [26]): 10
Wheat (winter) plant response rating (0 to 100 scale) (winter wheat [2]; Rate 250 g/ha): 0
Plant response rating, Wheat (winter) (winter wheat [2]; [27]): 100
Plant response rating, Wild oat (wild oat; [24]): 40
Plant response rating, Wild oat (wild oat; [25]): 25
Plant response rating, Wild oat (wild oat; [26]): 30
Wild oat plant response rating (0 to 100 scale) (wild oat; Rate 250 g/ha): 50
Plant response rating, Wild oat (wild oat; [27]): 85
Plant response rating, Barley (winter) (winter barley; [24]): 20
Plant response rating, Barley (winter) (winter barley; [25]): 10
Plant response rating, Barley (winter) (winter barley; [26]): 10
Barley (winter) plant response rating (0 to 100 scale) (winter barley; Rate 250 g/ha): 10
Plant response rating, Barley (winter) (winter barley; [27]): 95
